Results from ChEMBL document CHEMBL5725270, “Substituted imidazopyridazines” (2016).

Test: Time-Resolved Fluorescence Resonance Energy Transfer (TR-FRET) Assay: The human kinase Mps-1 phosphorylates a biotinylated substrate peptide. Detection of the phosphorylated product is achieved by time-resolved fluorescence resonance energy transfer (TR-FRET) from Europium-labelled anti-phospho-Serine/Threonine antibody as donor to streptavidin labelled with cross-linked allophycocyanin (SA-XLent) as acceptor. Compounds are tested for their inhibition of the kinase activity.N-terminally GST-tagged human full length recombinant Mps-1 kinase (purchased from Invitrogen, Karslruhe, Germany, cat. no PV4071) was used. […] The concentration of Mps-1 in the assay was adjusted to the activity of the enzyme lot and was chosen appropriate to have the assay in the linear range, typical enzyme concentrations were in the range of about 1 nM (final conc. in the 5 ul assay volume).

Question: With `Cc1cc(-c2cnc3c(NCCC(F)(F)F)cc(C(C)(O)c4cccc(F)c4O)nn23)ccc1C(=O)NC1CC1` (configuration not stated) as the compound, how does the IC50 read?
Answer: 0.3 nM

Question: For `Cc1cc(-c2cnc3c(NCCC(F)(F)F)cc(C4(c5cc(F)ccc5F)CC4)nn23)ccc1C(=O)NC1CC1`, which IC50 is on record?
Answer: 0.8 nM

Question: For `C=C(c1cccc(F)c1)c1cc(NCCC(F)(F)F)c2ncc(-c3ccc(C(=O)NC4CC4)c(C)c3)n2n1`, which IC50 is on record?
Answer: 0.3 nM

Question: For `Cc1cc(-c2cnc3c(NCCC(F)(F)F)cc(C(=O)c4cccc(F)c4F)nn23)ccc1C(=O)NC1CC1`, which IC50 is on record?
Answer: 0.6 nM

Question: With `C=C(c1ccc(OC)cc1)c1cc(NCCC(F)(F)F)c2ncc(-c3ccc(C(=O)NC4CC4)c(C)c3)n2n1` as the compound, how does the IC50 read?
Answer: 0.5 nM

Question: For `COc1ccc(C(=O)c2cc(NCCC(F)(F)F)c3ncc(-c4ccc(C(=O)NC5CC5)c(C)c4)n3n2)cc1`, which IC50 is on record?
Answer: 1.2 nM

Question: With `Cc1cc(-c2cnc3c(NCCC(F)(F)F)cc(C(=O)c4cc(F)ccc4F)nn23)ccc1C(=O)NC1CC1` as the compound, how does the IC50 read?
Answer: 0.6 nM

Question: Which IC50 does the source give for `Cc1cc(-c2cnc3c(NCCC(F)(F)F)cc(C4(c5cccc(F)c5)CC4)nn23)ccc1C(=O)NC1CC1` here?
Answer: 0.9 nM

Question: For `C=C(c1cc(NCCC(F)(F)F)c2ncc(-c3ccc(C(=O)NC4CC4)c(C)c3)n2n1)c1cc(F)ccc1O`, which IC50 is on record?
Answer: 0.4 nM

Question: With `C=C(c1cc(NCCC(F)(F)F)c2ncc(-c3ccc(C(=O)NC4CC4)c(C)c3)n2n1)c1cccc(F)c1F` as the compound, how does the IC50 read?
Answer: 0.4 nM

Question: For `Cc1cc(-c2cnc3c(NCCC(F)(F)F)cc(C(F)c4cccc(F)c4)nn23)ccc1C(=O)NC1CC1` (configuration not stated), which IC50 is on record?
Answer: 0.7 nM

Question: With `Cc1cc(-c2cnc3c(NCCC(F)(F)F)cc(C(O)c4cc(F)ccc4F)nn23)ccc1C(=O)NC1CC1` (configuration not stated) as the compound, how does the IC50 read?
Answer: 0.3 nM

Question: For `COc1cccc(C(=O)c2cc(NCCC(F)(F)F)c3ncc(-c4ccc(C(=O)NC5CC5)c(C)c4)n3n2)c1`, which IC50 is on record?
Answer: 0.5 nM

Question: Which IC50 does the source give for `Cc1cc(-c2cnc3c(NCCC(F)(F)F)cc(C(F)(F)c4cccc(F)c4F)nn23)ccc1C(=O)NC1CC1` here?
Answer: 1.5 nM

Question: For `C=C(c1cc(NCCC(F)(F)F)c2ncc(-c3ccc(C(=O)NC4CC4)c(C)c3)n2n1)c1cc(F)ccc1F`, which IC50 is on record?
Answer: 0.6 nM

Question: Which IC50 does the source give for `C=C(c1cccc(OC)c1)c1cc(NCCC(F)(F)F)c2ncc(-c3ccc(C(=O)NC4CC4)c(C)c3)n2n1` here?
Answer: 0.8 nM

Question: Which IC50 does the source give for `Cc1cc(-c2cnc3c(NCCC(F)(F)F)cc(C(F)(F)c4cc(F)ccc4F)nn23)ccc1C(=O)NC1CC1` here?
Answer: 0.5 nM
